Measurements from patent publication US7598258B2, “Quinoline derivatives and quinazoline derivatives inhibiting autophosphorylation of macrophage colony stimulating factor receptor” (Kirin Beer Kabushiki Kaisha, priority 2002, dated 2009).

How the values were obtained:
BAC-1.2F5 cell line = experiment: Inhibition of M-CSF-dependent cell growth of macrophage-like cell line BAC-1.2F5 (MTS); format: cell-based, mouse; details: 72 hr, M-CSF 50 ng/ml, FIG. 1
Method: Macrophage-like cell line BAC-1.2F5 which expresses c-fms as a M-CSF receptor on cell membranes (CLAUDIA M. et al., J. Cell. Physiol., 130, 420-427 (1987), “Isolation and Characterization of a Cloned Growth Factor Dependent Macrophage Cell Line, BAC1.2F5”) was cultured at 37° C. in a DMEM medium containing L-cell supernatant and 10% fetal calf serum (purchased from GIBCO BRL) in a 5% CO2 incubator until about 50 to 70% confluent. The harvested cells were inoculated into wells, each containing a 10% fetal calf serum-containing DMEM medium with human recombinant M-CSF being added thereto to a final concentration of 50 ng/ml, in a 96-well flat-bottom plate at a density of 5.0×10^3 per well, and cultured at 37° C. for 24 hr. A test compound dissolved in dimethyl sulfoxide was then added to each well to a target concentration, and cells were incubated at 37° C. in a 5% CO2 incubator for 72 hr. Thereafter, 20 μl of an MTS reagent (purchased from Promega) was added to each well, followed by incubation at 37° C. in a 5% CO2 incubator for 2 hr. Thereafter, absorbance at 490 nm was measured with a microplate reader. The cell growth rate with the addition of the test compound was determined by presuming the absorbance without the addition of the test compound and with the addition of M-CSF to be 100% cell growth and the absorbance without the addition of the test compound and M-CSF to be 0% cell growth. The concentration of the test compound was varied on several levels, and the cell growth rate in each case was calculated.

Human KDR = biological target: T1, Human KDR (Homo sapiens, UniProt P35968); experiment: Inhibition of KDR phosphorylation in human KDR-transfected NIH3T3 cells (ELISA); format: cell-based; details: for Selection ratio (KDR phosphorylation IC50 / c-fms phosphorylation IC50): class 0-3; for IC50: human KDR-transfected NIH3T3 cells, VEGF 100 ng/ml, ELISA, read-out: KDR phosphorylation 50% inhibitory concentration (IC50)
T1 construct: expressed in transfected cells; host or cells: NIH3T3 cells (mouse fibroblasts)
Method in brief: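 NIH3T3 cells transfected with human KDR, in 0.1% FCS medium, treated with compound 1 hr at 37° C, then stimulated with VEGF 100 ng/ml for 2 min. Lysate KDR phosphorylation measured by anti-phosphotyrosine capture/anti-KDR ELISA (A450); IC50 from inhibition normalized between VEGF-stimulated and unstimulated wells.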

T1 sequence (P35968 20-1356): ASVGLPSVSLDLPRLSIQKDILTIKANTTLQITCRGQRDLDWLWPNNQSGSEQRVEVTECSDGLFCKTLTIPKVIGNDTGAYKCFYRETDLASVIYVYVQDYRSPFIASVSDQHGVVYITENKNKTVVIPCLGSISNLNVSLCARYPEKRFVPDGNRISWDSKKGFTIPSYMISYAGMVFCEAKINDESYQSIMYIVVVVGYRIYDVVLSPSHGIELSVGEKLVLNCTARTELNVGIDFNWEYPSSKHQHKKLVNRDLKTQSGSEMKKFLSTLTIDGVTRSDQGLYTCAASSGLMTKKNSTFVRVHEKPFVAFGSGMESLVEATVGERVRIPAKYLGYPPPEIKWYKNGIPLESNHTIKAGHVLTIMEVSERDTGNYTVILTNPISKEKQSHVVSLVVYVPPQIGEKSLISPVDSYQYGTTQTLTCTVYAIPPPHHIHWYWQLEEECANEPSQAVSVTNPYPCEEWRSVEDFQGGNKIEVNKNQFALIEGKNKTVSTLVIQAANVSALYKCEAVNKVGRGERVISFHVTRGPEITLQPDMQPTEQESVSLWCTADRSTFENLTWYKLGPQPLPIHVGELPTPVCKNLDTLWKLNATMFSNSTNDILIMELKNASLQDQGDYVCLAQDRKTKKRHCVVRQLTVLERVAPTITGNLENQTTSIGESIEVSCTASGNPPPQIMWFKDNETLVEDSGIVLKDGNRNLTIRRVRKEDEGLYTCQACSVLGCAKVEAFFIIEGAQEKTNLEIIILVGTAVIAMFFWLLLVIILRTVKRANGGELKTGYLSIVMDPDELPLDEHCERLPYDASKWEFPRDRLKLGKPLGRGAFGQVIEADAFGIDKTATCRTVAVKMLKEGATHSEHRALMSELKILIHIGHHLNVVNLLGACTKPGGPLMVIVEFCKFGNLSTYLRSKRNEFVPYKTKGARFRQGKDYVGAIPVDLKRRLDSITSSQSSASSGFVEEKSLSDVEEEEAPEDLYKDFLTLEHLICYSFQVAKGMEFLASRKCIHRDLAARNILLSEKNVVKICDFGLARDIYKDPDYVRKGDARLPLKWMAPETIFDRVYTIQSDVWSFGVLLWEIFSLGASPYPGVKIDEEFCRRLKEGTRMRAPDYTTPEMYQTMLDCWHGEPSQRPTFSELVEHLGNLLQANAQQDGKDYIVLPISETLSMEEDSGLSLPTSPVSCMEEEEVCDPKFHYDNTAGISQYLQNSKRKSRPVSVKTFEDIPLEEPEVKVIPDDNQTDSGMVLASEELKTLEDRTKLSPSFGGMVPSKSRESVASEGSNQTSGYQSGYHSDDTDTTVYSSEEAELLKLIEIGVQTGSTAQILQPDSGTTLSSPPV

Structure (SMILES) | inhibition of M-CSF-dependent cell growth of BAC-1.2F5 (BAC-1.2F5 cell line) | Selection ratio (KDR phosphorylation IC50 / c-fms phosphorylation IC50) (Human KDR) | IC50 (Human KDR) [nM] | selective inhibition of c-fms rather than KDR (in words) (Human KDR; in vitro)
COc1cc(Oc2ccnc3cc(OC)c(OC)cc23)ccc1NC(=O)N[C@@H](C)c1ccc(F)cc1 [Example 17, N-{4-[(6,7-Dimethoxy-4-quinolyl)oxy]-2-methoxyphenyl}-N′-[(1S)-1-(4-fluorophenyl)ethyl]urea] | concentration-dependent inhibition | 3 (when the value was 50 or more) | 315 | selectively inhibit c-fms rather than KDR
COc1cc(Oc2ccnc3cc(OC)c(OC)cc23)ccc1NC(=O)N[C@H](C)c1ccc(F)cc1 [Example 18, N-{4-[(6,7-Dimethoxy-4-quinolyl)oxy]-2-methoxyphenyl}-N′-[(1R)-1-(4-fluorophenyl)ethyl]urea] | concentration-dependent inhibition | 0 (KDR phosphorylation 50% inhibitory concentration [μM]/c-fms phosphorylation 50% inhibitory concentration [μM] was less than 5) | 1.8 | –
COc1cc2nccc(Oc3ccc(NC(=O)N[C@H](C)c4nccs4)cc3OC)c2cc1OC [Example 82, N-{4-[(6,7-Dimethoxy-4-quinolyl)oxy]-3-methoxyphenyl}-N′-[(1R)-1-(1,3-thiazol-2-yl)ethyl]urea] | – | 3 (when the value was 50 or more) | 650 | –
COc1cc2nccc(Oc3ccc(NC(=O)NC(C)c4nccs4)c(C(F)(F)F)c3)c2cc1OC (stereo not drawn) [Example 83, N-[4-[(6,7-Dimethoxy-4-quinolyl)oxy]-2-(trifluoromethyl)phenyl]-N′-[1-(1,3-thiazol-2-yl)ethyl]urea] | – | 0 (KDR phosphorylation 50% inhibitory concentration [μM]/c-fms phosphorylation 50% inhibitory concentration [μM] was less than 5) | 7.9 | –
COc1cc2nccc(Oc3ccc(NC(=O)N[C@@H](C)c4nccs4)c(C(F)(F)F)c3)c2cc1OC [Example 84, N-[4-[(6,7-Dimethoxy-4-quinolyl)oxy]-2-(trifluoromethyl)phenyl]-N′-[(1S)-1-(1,3-thiazol-2-yl)ethyl]urea] | – | 3 (when the value was 50 or more) | 661 | –
COc1cc2nccc(Oc3ccc(NC(=O)N[C@H](C)c4nccs4)c(C(F)(F)F)c3)c2cc1OC [Example 85, N-[4-[(6,7-Dimethoxy-4-quinolyl)oxy]-2-(trifluoromethyl)phenyl]-N′-[(1R)-1-(1,3-thiazol-2-yl)ethyl]urea] | – | 0 (KDR phosphorylation 50% inhibitory concentration [μM]/c-fms phosphorylation 50% inhibitory concentration [μM] was less than 5) | 21.6 | –
COc1cc2nccc(Oc3cc(C)c(NC(=O)N[C@@H](C)c4nccs4)cc3C)c2cc1OC [Example 86, N-{4-[(6,7-Dimethoxy-4-quinolyl)oxy]-2,5-dimethylphenyl}-N′-[(1S)-1-(1,3-thiazol-2-yl)ethyl]urea] | – | 2 (when the value was 10 or more) | 208 | –
COc1cc2nccc(Oc3cc(C)c(NC(=O)N[C@H](C)c4nccs4)cc3C)c2cc1OC [Example 87, N-{4-[(6,7-Dimethoxy-4-quinolyl)oxy]-2,5-dimethylphenyl}-N′-[(1R)-1-(1,3-thiazol-2-yl)ethyl]urea] | – | 2 (when the value was 10 or more) | 273 | –
COc1cc2nccc(Oc3ccc(NC(=O)NC(C)c4nc(C)cs4)c(F)c3)c2cc1OC (stereo not drawn) [Example 88, N-{4-[(6,7-Dimethoxy-4-quinolyl)oxy]-2-fluorophenyl}-N′-[1-(4-methyl-1,3-thiazol-2-yl)ethyl]urea] | – | 0 (KDR phosphorylation 50% inhibitory concentration [μM]/c-fms phosphorylation 50% inhibitory concentration [μM] was less than 5) | 8.7 | –
COc1cc2nccc(Oc3ccc(NC(=O)NC(C)c4nc(C)cs4)cc3F)c2cc1OC (stereo not drawn) [Example 89, N-{4-[(6,7-Dimethoxy-4-quinolyl)oxy]-3-fluorophenyl}-N′-[1-(4-methyl-1,3-thiazol-2-yl)ethyl]urea] | – | 1 (when the value was 5 or more) | 17.4 | –
COc1cc(Oc2ccnc3cc(OC)c(OC)cc23)ccc1NC(=O)NC(C)c1nc(C)cs1 (stereo not drawn) [Example 90, N-{4-[(6,7-Dimethoxy-4-quinolyl)oxy]-2-methoxyphenyl}-N′-[1-(4-methyl-1,3-thiazol-2-yl)ethyl]urea] | – | 2 (when the value was 10 or more) | 111 | –
COc1cc2nccc(Oc3ccc(NC(=O)NC(C)c4nc(C)cs4)cc3)c2cc1OC (stereo not drawn) [Example 91, N-{4-[(6,7-Dimethoxy-4-quinolyl)oxy]phenyl}-N′-[1-(4-methyl-1,3-thiazol-2-yl)ethyl]urea] | – | 1 (when the value was 5 or more) | 28.8 | –
COc1cc2nccc(Oc3ccc(NC(=O)NC(C)c4nc(C)cs4)c(C(F)(F)F)c3)c2cc1OC (stereo not drawn) [Example 92, N-[4-[(6,7-Dimethoxy-4-quinolyl)oxy]-2-(trifluoromethyl)phenyl]-N′-[1-(4-methyl-1,3-thiazol-2-yl)ethyl]urea] | – | 0 (KDR phosphorylation 50% inhibitory concentration [μM]/c-fms phosphorylation 50% inhibitory concentration [μM] was less than 5) | 4.3 | –
COc1cc2nccc(Oc3cc(C)c(NC(=O)NC(C)c4nc(C)cs4)cc3C)c2cc1OC (stereo not drawn) [Example 93, N-{4-[(6,7-Dimethoxy-4-quinolyl)oxy]-2,5-dimethylphenyl}-N′-[1-(4-methyl-1,3-thiazol-2-yl)ethyl]urea] | – | 1 (when the value was 5 or more) | 268 | –
COc1cc(Oc2ccnc3cc(OC)c(OC)cc23)ccc1NC(=O)NC(C)c1nc(C)c(C)s1 (stereo not drawn) [Example 99, N-{4-[(6,7-Dimethoxy-4-quinolyl)oxy]-2-methoxyphenyl}-N′-[1-(4,5-dimethyl-1,3-thiazol-2-yl)ethyl]urea] | – | 2 (when the value was 10 or more) | 292 | –
COc1cc2nccc(Oc3ccc(NC(=O)NC(C)c4ncc(C)s4)cc3)c2cc1OC (stereo not drawn) [Example 100, N-{4-[(6,7-Dimethoxy-4-quinolyl)oxy]phenyl}-N′-[1-(5-methyl-1,3-thiazol-2-yl)ethyl]urea] | – | 2 (when the value was 10 or more) | 311 | –
COc1cc2nccc(Oc3ccc(NC(=O)NC(C)c4ncc(C)s4)c(F)c3)c2cc1OC (stereo not drawn) [Example 101, N-{4-[(6,7-Dimethoxy-4-quinolyl)oxy]-2-fluorophenyl}-N′-[1-(5-methyl-1,3-thiazol-2-yl)ethyl]urea] | – | 2 (when the value was 10 or more) | 239 | –
COc1cc2nccc(Oc3ccc(NC(=O)NC(C)c4ncc(C)s4)cc3F)c2cc1OC (stereo not drawn) [Example 102, N-{4-[(6,7-Dimethoxy-4-quinolyl)oxy]-3-fluorophenyl}-N′-[1-(5-methyl-1,3-thiazol-2-yl)ethyl]urea] | – | 2 (when the value was 10 or more) | 219 | –
COc1cc2nccc(Oc3ccc(NC(=O)NC(C)c4ncc(C)s4)c(C)c3)c2cc1OC (stereo not drawn) [Example 103, N-{4-[(6,7-Dimethoxy-4-quinolyl)oxy]-2-methylphenyl}-N′-[1-(5-methyl-1,3-thiazol-2-yl)ethyl]urea] | – | 0 (KDR phosphorylation 50% inhibitory concentration [μM]/c-fms phosphorylation 50% inhibitory concentration [μM] was less than 5) | 90.9 | –
COc1cc2nccc(Oc3ccc(NC(=O)NC(C)c4ncc(C)s4)c(C(F)(F)F)c3)c2cc1OC (stereo not drawn) [Example 104, N-[4-[(6,7-Dimethoxy-4-quinolyl)oxy]-2-(trifluoromethyl)phenyl]-N′-[1-(5-methyl-1,3-thiazol-2-yl)ethyl]urea] | – | 0 (KDR phosphorylation 50% inhibitory concentration [μM]/c-fms phosphorylation 50% inhibitory concentration [μM] was less than 5) | 36.1 | –
COc1cc(Oc2ccnc3cc(OC)c(OC)cc23)ccc1NC(=O)NC(C)c1ncc(C)s1 (stereo not drawn) [Example 105, N-{4-[(6,7-Dimethoxy-4-quinolyl)oxy]-2-methoxyphenyl}-N′-[1-(5-methyl-1,3-thiazol-2-yl)ethyl]urea] | – | 2 (when the value was 10 or more) | 310 | –
